Laboratory results taken from US10966994B2, “Thromboxane receptor antagonists” (ATXA THERAPEUTICS LIMITED, priority 2015, dated 2021).

Key:
TPα = target: T1, TPα (Homo sapiens, UniProt P21731); assay: U46619-mediated calcium mobilization in HEK.TPα cells; assay type: cell-based; details: for inhibition of U46619-mediated calcium mobilization, TPα (in words): 1 μM U46619; for IC50: 1 μM U46619, estimated IC50, mean ± S.E.M., read-out: IC50 values for Inhibition of U46619-Mediated [Ca2+]i Mobilisation, TPα
T1 construct: expressed in transfected cells; host or cells: HEK 293 (HEK.TPα, isolate HR #4)
T1 sequence (P21731 1-343): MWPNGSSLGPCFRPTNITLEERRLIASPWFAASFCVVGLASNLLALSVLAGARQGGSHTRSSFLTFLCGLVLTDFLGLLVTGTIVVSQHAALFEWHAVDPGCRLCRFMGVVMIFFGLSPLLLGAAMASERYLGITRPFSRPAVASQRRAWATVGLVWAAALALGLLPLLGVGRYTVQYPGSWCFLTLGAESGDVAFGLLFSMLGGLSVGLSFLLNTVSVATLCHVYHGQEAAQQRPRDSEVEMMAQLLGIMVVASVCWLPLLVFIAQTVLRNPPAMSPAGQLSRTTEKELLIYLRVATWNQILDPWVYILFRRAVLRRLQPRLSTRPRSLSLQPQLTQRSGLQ
Experimental: (§1) NTP42-NTP49, northern group variants of NTP4, were assessed through calcium mobilization assays using proprietary HEK 293 cells over-expressing the thromboxane (TX)A2 receptor, α (TPα) and β (TPβ) isoforms, referred to as HEK.TPα and HEK.TPβ cells, respectively. The initial screening involved dose-responses assays (concentrations used 0.0001 (TPβ only), 0.001, 0.1, 1 & 10 μM; (TPα and TPβ)) followed by more focused, full dose response assays (concentration range: 0.00001 to 10 μM) for determination of IC50 values where the effect of the compounds on calcium mobilized in response to the TXA2 mimetic U46619 (1 μM) were performed in side-by-side comparison with the key lead compounds TP20 and NTP4.
(§2) As stated, NTP42-NTP49 were screened through calcium mobilization assays using HEK.TPα and HEK.TPβ cells over-expressing the thromboxane (TX)A2 receptor, α (TPα) and β (TPβ) isoforms, respectively. The initial screening involved dose-response assays where the compounds, used at 0.0001 (TPβ only), 0.001, 0.1, 1 & 10 μM (TPα and TPβ), were assessed for their ability to inhibit the TXA2 mimetic U46619 (1 μM). The compounds were tested in side-by-side assays with the previously identified key lead compounds TP20 and NTP4.
HEK.TPα (HR #4) cells, preloaded with Fluo-4, were incubated with the TP20, NTP4, NTP42, NTP43, NTP44, NTP45, NTP47, NTP48 & NTP49 where each antagonist was used at 0.001, 0.1, 1 & to 10 μM, as indicated, prior to stimulation with 1 μM U46619. Data is presented as the mean (±S.E.M.) percentage of the agonist-induced response in vehicle-treated cells (Percentage of Control; %) and represents data from at least 4 independent experiments were cells were treated in duplicate.
HEK.TPα (HR #4) cells, preloaded with Fluo-4, were incubated with the TP20, NTP4, NTP42, NTP43 and NTP48 where each antagonist was used at 0.00001-10 μM, as indicated, prior to stimulation with 1 μM U46619. Data is presented as the mean (±S.E.M.) percentage of the agonist induced response in vehicle-treated cells (Percentage of Control; %) and represents data from at least 3 independent experiments were cells were treated in duplicate.

TPβ = target: T2, TPβ (Homo sapiens, UniProt P21731); assay: U46619-mediated calcium mobilization in HEK.TPβ cells; assay type: cell-based; details: for inhibition of U46619-mediated calcium mobilization, TPβ (in words): 1 μM U46619; for IC50: 1 μM U46619, estimated IC50, mean ± S.E.M., read-out: IC50 values for Inhibition of U46619-Mediated [Ca2+]i Mobilisation, TPβ
T2 construct: expressed in transfected cells; host or cells: HEK 293 (HEK.TPβ, isolate EM #8)
T2 sequence (P21731 1-407 isoform P21731-2): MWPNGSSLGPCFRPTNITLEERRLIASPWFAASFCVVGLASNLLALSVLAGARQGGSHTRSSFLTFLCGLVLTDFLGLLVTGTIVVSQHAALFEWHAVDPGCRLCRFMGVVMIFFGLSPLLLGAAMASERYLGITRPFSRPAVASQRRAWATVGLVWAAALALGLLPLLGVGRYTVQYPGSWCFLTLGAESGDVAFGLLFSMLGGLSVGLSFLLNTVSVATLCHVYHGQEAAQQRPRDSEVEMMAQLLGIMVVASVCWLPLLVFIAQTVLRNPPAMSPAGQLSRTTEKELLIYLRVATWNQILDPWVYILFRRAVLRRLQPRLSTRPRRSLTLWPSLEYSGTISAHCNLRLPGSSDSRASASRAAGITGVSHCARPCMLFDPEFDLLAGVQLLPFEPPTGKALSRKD
Experimental: as §1, §2
HEK.TPβ (EM #8) cells, preloaded with Fluo-4, were incubated with the TP20, NTP4, NTP42, NTP43, NTP44, NTP45, NTP47, NTP48 & NTP49 where each antagonist was used at 0.0001, 0.001, 0.1, 1 & to 10 μM, as indicated, prior to stimulation with 1 μM U46619. Data is presented as the mean (±S.E.M.) percentage of the agonist-induced response in vehicle-treated cells (Percentage of Control; %) and represents data from at least 4 independent experiments were cells were treated in duplicate.
HEK.TPβ (EM #8) cells, preloaded with Fluo-4, were incubated with the TP20, NTP4, NTP42, NTP43 and NTP48 where each antagonist was used at 0.00001-10 μM, as indicated, prior to stimulation with 1 μM U46619. Data is presented as the mean (±S.E.M.) percentage of the agonist-induced response in vehicle-treated cells (Percentage of Control; %) and represents data from at least 4 independent experiments were cells were treated in duplicate.

DP1 receptor = target: T3, DP1 receptor (Homo sapiens, UniProt Q13258); assay: Specificity testing, DP1 receptor signaling; assay type: cell-based
T3 sequence (Q13258 1-359): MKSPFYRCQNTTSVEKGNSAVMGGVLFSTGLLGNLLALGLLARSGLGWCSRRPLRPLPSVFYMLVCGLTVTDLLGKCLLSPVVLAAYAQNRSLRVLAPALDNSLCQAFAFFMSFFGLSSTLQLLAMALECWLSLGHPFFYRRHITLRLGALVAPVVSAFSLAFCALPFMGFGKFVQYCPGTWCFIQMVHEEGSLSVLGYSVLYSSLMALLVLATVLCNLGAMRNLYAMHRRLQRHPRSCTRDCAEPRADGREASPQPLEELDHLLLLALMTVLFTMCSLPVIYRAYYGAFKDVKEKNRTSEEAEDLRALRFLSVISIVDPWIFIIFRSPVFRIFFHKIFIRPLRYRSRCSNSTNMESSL
Experimental: There is no or minimal inhibition of the majority of the non-TP-mediated signaling observed in the presence of either NTP42 & NTP48. Where there is inhibition of signaling, it is observed at the 10 μM concentration only. […] Compared to NTP42, NTP48 has less of an effect on the signaling of the non-TP prostanoid receptors and therefore, may be considered more favorable in this context.

EP3 receptor = target: T4, EP3 receptor (Homo sapiens, UniProt P43115); assay: Specificity testing, EP3 receptor signaling; assay type: cell-based
T4 sequence (P43115 1-390): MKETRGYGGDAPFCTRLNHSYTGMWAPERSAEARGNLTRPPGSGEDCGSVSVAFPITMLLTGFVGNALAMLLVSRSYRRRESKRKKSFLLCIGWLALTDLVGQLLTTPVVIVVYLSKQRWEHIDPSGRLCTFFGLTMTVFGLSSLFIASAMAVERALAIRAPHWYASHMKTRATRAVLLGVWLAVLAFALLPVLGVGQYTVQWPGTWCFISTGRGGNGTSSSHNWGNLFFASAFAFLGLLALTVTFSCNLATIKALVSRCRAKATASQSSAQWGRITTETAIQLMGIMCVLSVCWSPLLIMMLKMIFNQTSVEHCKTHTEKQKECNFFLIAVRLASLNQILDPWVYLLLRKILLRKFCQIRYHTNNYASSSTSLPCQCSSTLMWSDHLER

FP1 receptor = FP1 receptor (Homo sapiens, UniProt P43088); assay: Specificity testing, FP1 receptor signaling; assay type: cell-based
FP1 receptor, sequence (P43088 whole entry): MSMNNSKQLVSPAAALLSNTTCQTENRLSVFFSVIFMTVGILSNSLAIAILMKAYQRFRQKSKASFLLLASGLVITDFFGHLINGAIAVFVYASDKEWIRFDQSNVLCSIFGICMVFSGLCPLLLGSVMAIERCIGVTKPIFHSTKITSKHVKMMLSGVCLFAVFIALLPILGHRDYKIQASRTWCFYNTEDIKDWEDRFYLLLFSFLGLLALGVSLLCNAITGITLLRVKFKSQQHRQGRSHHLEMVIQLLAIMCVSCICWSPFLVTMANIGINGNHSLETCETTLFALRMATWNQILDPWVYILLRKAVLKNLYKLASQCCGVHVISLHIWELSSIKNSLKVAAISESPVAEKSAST

[1] = test system: purinergic (ADP) receptors; assay: Specificity testing, purinergic (ADP) receptor signaling

Compound	inhibition of U46619-mediated calcium mobilization, TPα (in words) (TPα)	inhibition of U46619-mediated calcium mobilization, TPβ (in words) (TPβ)	effect on the DP1 receptor (DP-mediated signaling) (DP1 receptor)	effect on the EP3 receptor (EP3 receptor)	effect on the FP1 receptor (FP-mediated signaling) (FP1 receptor)	effect on signaling through purinergic (ADP) receptors [1]	IC50 (TPα)	IC50 (TPβ)	percentage reduction in responses, DP1 (DP1 receptor; maximal inhibition, at 10 μM only)
COc1ccc(-c2cccc(Oc3ccc(C#N)cc3S(=O)(=O)NC(=O)NC(C)(C)C)c2)cc1 [NTP4, reference compound]	potently inhibited	potently inhibited	like TP20 and NTP4, neither NTP42, NTP43 nor NTP48 exhibited any effect	like TP20 and NTP4, neither NTP42, NTP43 nor NTP48 exhibited any effect	like TP20 and NTP4, neither NTP42, NTP43 nor NTP48 exhibited any effect	like TP20 and NTP4, neither NTP42, NTP43 nor NTP48 exhibited any effect			
CC(C)(C)NC(=O)NS(=O)(=O)c1cc(C#N)ccc1Oc1cccc(-c2ccc(OC(F)F)cc2)c1 [NTP42]			no effect	no effect	no effect	neither NTP42, NTP43 nor NTP48 exhibited any effect	56.2 ± 4.84 nM	8.25 ± 0.73 nM	< 30%
CC(C)(C)NC(=O)NS(=O)(=O)c1cc(C#N)ccc1Oc1cccc(-c2ccc(OC(F)(F)F)cc2)c1 [NTP43]			not to exhibit any effect	not to exhibit any effect	not to exhibit any effect	neither NTP42, NTP43 nor NTP48 exhibited any effect	105 ± 7.95 nM	18.4 ± 1.63 nM	
CN(C)C(=O)c1ccc(-c2cccc(Oc3ccc(C#N)cc3S(=O)(=O)NC(=O)NC(C)(C)C)c2)cc1 [NTP48, 4-[3-[2-(tert-Butylcarbamoylsulfamoyl)-4-cyano-phenoxy]phenyl]-N,N-dimethyl-benzamide]			no effect	no effect	no effect	neither NTP42, NTP43 nor NTP48 exhibited any effect	90.1 ± 6.43 nM	5.06 ± 1.5 nM	
COc1ccc(-c2cccc(Oc3ccc([N+](=O)[O-])cc3S(=O)(=O)NC(=O)NC(C)(C)C)c2)cc1 [TP20, reference compound]	potently inhibited	potently inhibited	like TP20 and NTP4, neither NTP42, NTP43 nor NTP48 exhibited any effect	like TP20 and NTP4, neither NTP42, NTP43 nor NTP48 exhibited any effect	like TP20 and NTP4, neither NTP42, NTP43 nor NTP48 exhibited any effect	like TP20 and NTP4, neither NTP42, NTP43 nor NTP48 exhibited any effect	125 ± 11.4 nM		
